From paper PMC10492782, “Exploiting the aggregation propensity of beta-lactamases to design inhibitors that induce enzyme misfolding” (Nature Communications, 2023)

Experiments:
[1] = Dynamic Light Scattering of peptide (hydrodynamic radius); assay type: physicochemical
Method: Fig. 4 Aggregation kinetics of TEM and SHV proteins and peptides. A Measurements of the hydrodynamic radius by Dynamic Light Scattering of 50 μM TEM3.2 in buffer alone, or in the presence of LPS or polyphosphate (PolyP). […] C Transmission Electron Micrograph of 50 μM TEM 3.2 incubated for 24 h in the same buffer as A with polyP, negatively stained with 2% (w/v) uranyl acetate. A single representative image is shown. […] Three replicates are shown for each condition. E Aggregation kinetics using pFTAA fluorescence emission of recombinantly purified TEM-1, in the presence of vehicle, or TEM 3.2 peptin, as well as peptin-only control. F Similar as in E, but using an off-target Pept-In, based on an APR sequence of beta-galactosidase. G Similar to E, but now using a previously published off-target Pept-In, based on an APR of HcaB. The plots are the results of a single experiment, all replicates are shown. Source data are provided as a Source Data file.
A DynaPro DLS plate reader instrument (Wyatt, Santa Barbara, CA, USA) equipped with an 830 nm laser source was used to determine the hydrodynamic radius (RH) of the peptide particles. […] The autocorrelation of scattered light intensity at a 32° angle was recorded for 5 s and averaged over 20 recordings to obtain a single data point. […]

[2] = biological target: T1, TEM beta-lactamase in E. coli strain UZ_TEM104 (Escherichia coli, UniProt P62593); test: Western blot of inclusion body fraction; assay type: cell-based; settings: 12 μM peptide in PBS, 120 min
T1 construct: endogenous in cells
T1 sequence (P62593 24-286 limits assumed): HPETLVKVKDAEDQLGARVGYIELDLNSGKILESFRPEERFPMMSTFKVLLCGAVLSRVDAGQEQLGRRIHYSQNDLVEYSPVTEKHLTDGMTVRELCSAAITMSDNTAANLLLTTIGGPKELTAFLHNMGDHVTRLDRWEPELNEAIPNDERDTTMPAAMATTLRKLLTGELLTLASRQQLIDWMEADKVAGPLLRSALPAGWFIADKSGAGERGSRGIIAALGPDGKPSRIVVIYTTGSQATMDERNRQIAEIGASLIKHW
Text: Fig. 5 Induction of aggregation in cells. […] A single representative image is shown. […] A single representative image is shown. C SIM and brightfield images as in A, but for E. coli ATCC strain. […] A single representative image is shown. […] A single representative blot is shown. […] The corrected P-values were 0.6091, 0.0029, 0.0027, <0.0001, and 0.9992, from left to right. […] Statistics exactly as in E, but from 3 independent experiments. The corrected P-values were 0.8753, 0.9796, 0.0001, 0.0003, and 0.0003, from left to right. Source data are provided as a Source Data file.
Overnight cultures of bacteria were centrifuged for 30 min at 4000 × g and cells were washed with physiological water (NaCl 0.9%). Bacterial cells were treated by peptide at the appropriate concentration for at least 2 h at 37 C. The bacterial pellets were washed with 10 mL buffer A (50 mM HEPES, pH 7.5, 300 mM NaCl, 5 mM β-mercaptoethanol, 1.0 mM EDTA) and centrifuged at 4 °C for 30 min at 4000 × g. […]

[3] = test system: HEK293; settings: 24 h, 400 to 6.25 µg/mL
Method: (§1) The Cell Titer Blue assay was performed to evaluate the cell viability according to the instructions of the manufacturer (Promega, USA). The peptide treatments were done in DMEM medium without serum. Briefly, cells were seeded to approximately 20,000 mammalian cells per well in a 96-well flat-bottom plate (BD Biosciences 353075) and incubated at 37 °C with 5% CO2 and 90% humidity. Peptides were diluted in cell medium, and cells were treated for 24 h. 20 μL of the CellTiter Blue reagent was added to each well and the plate was incubated for 1 h at 37 °C. The fluorescence was measured at 590 nm by exciting at 560 nm with a ClarioStar plate reader (BMG Labtech, Germany).
(§2) Khodaparast et al Supplementary data
(§3) Supplementary Figure 12: Cell viability assays on mammalian cells using the CellTiter Blue assay, plotted as relative values compared to vehicle. The colours of the bars show the concentrations indicated in the legends in µg/mL, ranging from 400 to 6.25 µg/mL. The dots indicate individual measurements on independent wells of cells (4 repeats), the bars

[4] = test system: HT-1376; settings: 24 h, 400 to 6.25 µg/mL
Method: as §1, §2, §3

[5] = test system: NCI-H441; settings: 24 h, 400 to 12.5 µg/mL
Method: as §1, §2, §3

[6] = test system: SH-SY5Y; settings: 24 h, 400 to 6.25 µg/mL
Method: as §1, §2, §3

[7] = test system: primary mouse cortical neurons; settings: 24 h, 400 to 6.25 µg/mL
Method: as §1, §2, §3

Ac-RLTAFLHNRRPRLTAFLRQRR-NH2 [TEM3.2]
solubility by Dynamic Light Scattering (in words) ([1]; 50 μM peptide in buffer alone): soluble in vitro
aggregation by Dynamic Light Scattering (in words) ([1]; 50 μM peptide in the presence of LPS or polyphosphate (PolyP)): aggregates readily when triggered by appropriate interactions
TEM protein in inclusion body fraction, western blot (in words) [2]: clear enrichment of the TEM protein in IBs
cytotoxicity, Cell Titer Blue (in words) [3]: not cytotoxic
cytotoxicity, Cell Titer Blue (in words) [4]: not cytotoxic
cytotoxicity, Cell Titer Blue (in words) [5]: not cytotoxic
cytotoxicity, Cell Titer Blue (in words) [6]: not cytotoxic
cytotoxicity, Cell Titer Blue (in words) [7]: not cytotoxic
